The first assay concerns SH-SY5Y M-currents (KCNQ2, KCNQ3 and KCNQ5). Kind of assay: SH-SY5Y native cell line FLIPR assay (voltage-sensitive dye DiBAC). Conditions: FLIPR assay, SH-SY5Y native cell line; Table 1; read-out: SH-SY5Y EC50. It counts as cell-based, mouse neuroblastoma, rat glioma hybrid cell line. An outline of the steps:
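Response is peak DiBAC fluorescence change, normalised to the maximum from a positive control agent, sampled every 30 s over 25 min. Before compound addition, SH-SY5Y cells differentiated with PGE1 plus isomethylbutylxanthine were dye-loaded for 1 h in EBSS with […] DiBAC.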
As to `O=C(Nc1cn2c(C(F)(F)F)cccc2n1)C(F)(F)F` [Compound 12, 2,2,2-trifluoro-N-(5-(trifluoromethyl)imidazo[1,2-a]pyridin-2-yl)acetamide], the EC50 fell in the range of 3000 to 10000 nM. `O=C(Nc1nc2ccc(C(F)(F)F)cn2c1C1CCCCC1)C1CCCC1` [Compound 54, N-(3-cyclohexyl-6-(trifluoromethyl)imidazo[1,2-a]pyridin-2-yl)cyclopentanecarboxamide]: the EC50 is less than 500 nM. Same read-out and setting: to `O=C(Nc1nc2ccc(C(F)(F)F)cn2c1C1CC1)C1CCC(F)(F)CC1` [Compound 75, N-(3-cyclopropyl-6-(trifluoromethyl)imidazo[1,2-a]pyridin-2-yl)-4,4-difluorocyclohexanecarboxamide] belongs less than 500 nM; to `CC(C)(C)Cc1c(NC(=O)Cc2cccc(Cl)c2)nc2ccc(C(F)(F)F)cn12` [Compound 35, 2-(3-chlorophenyl)-N-(3-neopentyl-6-(trifluoromethyl)imidazo[1,2-a]pyridin-2-yl)acetamide], less than 500 nM. In the case of `Cc1ccc2nc(NC(=O)CC(C)(C)C)c(CC(C)(C)C)n2n1` [Compound 67, 3,3-dimethyl-N-(6-methyl-3-neopentylimidazo[1,2-b]pyridazin-2-yl)butanamide], the EC50 is less than 500 nM. `O=C(Cc1ccccc1)Nc1nc2ccc(C(F)(F)F)cn2c1C1CCCC1` [Compound 49, N-(3-cyclopentyl-6-(trifluoromethyl)imidazo[1,2-a]pyridin-2-yl)-2-phenyl acetamide]: the EC50 is less than 500 nM.

Regarding `CC(C)(C)Cc1c(NC(=O)CC2(C)CCCC2)nc2ccc(C(F)(F)F)cn12` [Compound 34, 2-(1-methylcyclopentyl)-N-(3-neopentyl-6-(trifluoromethyl)imidazo[1,2-a]pyridin-2-yl)acetamide], the EC50 was less than 500 nM.

The assay is the same for the next values; noted with them: FLIPR assay, SH-SY5Y native cell line; Table 2; read-out: SH-SY5Y EC50.
As for `O=C(Nc1nc2ccc(F)cn2c1-c1ccc(C(F)(F)F)cc1)OCc1ccccc1` [Compound 161, benzyl 6-fluoro-3-(4-(trifluoromethyl)phenyl)imidazo[1,2-a]pyridin-2-ylcarbamate], the EC50 is 3000 to 10000 nM. Turning to `COc1ccn2c(-c3ccc(C(F)(F)F)cc3)c(NC(=O)Cc3ccccc3)nc2c1` [Compound 246, N-(7-methoxy-3-(4-(trifluoromethyl)phenyl)imidazo[1,2-a]pyridin-2-yl)-2-phenylacetamide], the EC50 was in the range of 500 to 3000 nM. Same read-out and setting: the same measure for `O=C(Cc1cccc(Cl)c1)Nc1nc2ccc(F)cn2c1-c1ccc(OC(F)(F)F)c(F)c1` [Compound 298, 2-(3-chlorophenyl)-N-(6-fluoro-3-(3-fluoro-4-(trifluoromethoxy)phenyl)imidazo[1,2-a]pyridin-2-yl)acetamide]: less than 500 nM.

Turning to `CC(CC(=O)Nc1nc2cc(Cl)c(Cl)cn2c1-c1ccc(OC(F)(F)F)cc1)C(F)(F)F` (stereo not shown) [Compound 219], the EC50 was in the range of 500 to 3000 nM. `CC(C)(C)CCC(=O)Nc1nc2ccc(F)cn2c1-c1ccc(C(F)(F)F)cc1` [Compound 188, N-(6-fluoro-3-(4-(trifluoromethyl)phenyl)imidazo[1,2-a]pyridin-2-yl)-4,4-dimethylpentanamide]: the EC50 was less than 500 nM.

For the compound `O=C(Cc1ccc(C(F)(F)F)cc1)Nc1nc2ccc(F)cn2c1-c1ccc(F)cc1` [Compound 135, N-(6-fluoro-3-(4-fluorophenyl)imidazo[1,2-a]pyridin-2-yl)-2-(4-(trifluoromethyl)phenyl)acetamide], the EC50 was 500 to 3000 nM. `CC(CC(=O)Nc1nc2ncc(Cl)cn2c1-c1cccc(Cl)c1)C(F)(F)F` (stereo not shown) [Compound 321, N-(6-chloro-3-(3-chlorophenyl)imidazo[1,2-a]pyrimidin-2-yl)-4,4,4-trifluoro-3-methylbutanamide]: the EC50 fell in the range of 3000 to 10000 nM. In the case of `O=C(CC1CC1)Nc1nc2ccc(F)cn2c1-c1cccc(OC(F)(F)F)c1` [Compound 265, 2-cyclopropyl-N-(6-fluoro-3-(3-(trifluoromethoxy)phenyl)imidazo[1,2-a]pyridin-2-yl)acetamide], the EC50 fell in the range of 500 to 3000 nM. Take `CC(C)(C)CCC(=O)Nc1nc2ccc(F)cn2c1-c1cccc(OC(F)(F)F)c1` [Compound 279, N-(6-fluoro-3-(3-(trifluoromethoxy)phenyl)imidazo[1,2-a]pyridin-2-yl)-4,4-dimethylpentanamide]: the EC50 was less than 500 nM. The same measure, in the same setting: to `O=C(Cc1ccc(Cl)cc1)Nc1nc2ccc(F)cn2c1-c1cccc(Cl)c1` [Compound 301, 2-(4-chlorophenyl)-N-(3-(3-chlorophenyl)-6-fluoroimidazo[1,2-a]pyridin-2-yl)acetamide] belongs less than 500 nM; to `O=C(Cc1ccccc1)Nc1nc2ccc(F)cn2c1-c1ccc(F)c(F)c1` [Compound 211, N-(3-(3,4-difluorophenyl)-6-fluoroimidazo[1,2-a]pyridin-2-yl)-2-phenylacetamide], less than 500 nM; to `O=C(CCC(F)(F)F)Nc1nc2cc(C(F)(F)F)ccn2c1-c1ccccc1` [Compound 105, 4,4,4-trifluoro-N-(3-phenyl-7-(trifluoromethyl)imidazo[1,2-a]pyridin-2-yl)butanamide], 3000 to 10000 nM. On to `CC(C)(C)CC(=O)Nc1nc2ccc(Br)cn2c1-c1ccc(F)cc1` [Compound 152, N-(6-bromo-3-(4-fluorophenyl)imidazo[1,2-a]pyridin-2-yl)-3,3-dimethyl butanamide], for which the EC50 was less than 500 nM.

As to `O=C(Cc1ccc(F)cc1)Nc1nc2cc(Cl)c(Cl)cn2c1-c1ccc(C(F)(F)F)cc1` [Compound 236, N-(6,7-dichloro-3-(4-(trifluoromethyl)phenyl)imidazo[1,2-a]pyridin-2-yl)-2-(4-fluorophenyl)acetamide], the EC50 was less than 500 nM. As to `O=C(Cc1ccc(F)cc1)Nc1nc2ccccn2c1-c1ccc(OC(F)(F)F)cc1` [Compound 205, 2-(4-fluorophenyl)-N-(3-(4-(trifluoromethoxy)phenyl)imidazo[1,2-a]pyridin-2-yl)acetamide], the EC50 is less than 500 nM. As for `O=C(Cc1ccccc1)Nc1nc2ccc(F)cn2c1-c1ccc(C(F)(F)F)cc1` [Compound 127, N-(6-fluoro-3-(4-(trifluoromethyl)phenyl)imidazo[1,2-a]pyridin-2-yl)-2-phenylacetamide], the EC50 is less than 500 nM. The same measure, in the same setting: the same measure for `O=C(Nc1nc2ccc(F)cn2c1-c1ccc(F)cc1)OCc1ccccc1` [Compound 146, benzyl 6-fluoro-3-(4-fluorophenyl)imidazo[1,2-a]pyridin-2-ylcarbamate]: less than 500 nM; for `CC(=O)OCC(C)(C)CC(=O)Nc1nc2ccc(F)cn2c1-c1ccc(C(F)(F)F)cc1` [Compound 189, 4-(6-fluoro-3-(4-(trifluoromethyl)phenyl)imidazo[1,2-a]pyridin-2-ylamino)-2,2-dimethyl-4-oxobutyl acetate]: 3000 to 10000 nM; for `O=C(Cc1ccc(F)cc1)Nc1nc2ccc(F)cn2c1-c1ccc(C(F)(F)F)cc1` [Compound 126, N-(6-fluoro-3-(4-(trifluoromethyl)phenyl)imidazo[1,2-a]pyridin-2-yl)-2-(4-fluorophenyl)acetamide]: 500 to 3000 nM.

Regarding `CC(CC(=O)Nc1nc2ccc(F)cn2c1-c1ccc(F)cc1)C(F)(F)F` (stereo not shown) [Compound 144, 4,4,4-trifluoro-N-(6-fluoro-3-(4-fluorophenyl)imidazo[1,2-a]pyridin-2-yl)-3-methylbutanamide], the EC50 lay in the range of 500 to 3000 nM. Still for that read-out and setting: the same measure for `O=C(CC1CCCC1)Nc1nc2ccc(F)cn2c1-c1ccc(OC(F)(F)F)cc1` [Compound 170, 2-cyclopentyl-N-(6-fluoro-3-(4-(trifluoromethoxy)phenyl)imidazo[1,2-a]pyridin-2-yl)acetamide]: less than 500 nM.

The same assay, now with this note: FLIPR assay, SH-SY5Y native cell line; Table 5; read-out: SH-SY5Y EC50.
As for `Cc1c(NC(=O)CC(F)(F)F)nc2ccc(F)cn12` [Compound 424, 3,3,3-trifluoro-N-(6-fluoro-3-methylimidazo[1,2-a]pyridin-2-yl)propanamide], the EC50 is 3000 to 10000 nM.

For the compound `Cc1c(NC(=O)C(F)(F)F)nc2ccc(F)cn12` [Compound 421, 2,2,2-trifluoro-N-(6-fluoro-3-methylimidazo[1,2-a]pyridin-2-yl)acetamide], the EC50 was in the range of 3000 to 10000 nM.

Staying with this assay, now noted: SH-SY5Y native cell line, FLIPR assay (Table 3); read-out: SH-SY5Y EC50.
Consider `CC(CC(=O)Nc1nc2ccc(F)cn2c1-c1cc(C(F)(F)F)ccn1)C(F)(F)F` (stereo not shown) [Compound 401, 4,4,4-trifluoro-N-(6-fluoro-3-(4-(trifluoromethyl)pyridin-2-yl)imidazo[1,2-a]pyridin-2-yl)-3-methylbutanamide], for which the EC50 lay in the range of 500 to 3000 nM. Same read-out and setting: to `O=C(Nc1nc2ccc(F)cn2c1-c1nccs1)C1CCC(F)(F)CC1` [Compound 391, 4,4-difluoro-N-(6-fluoro-3-(thiazol-2-yl)imidazo[1,2-a]pyridin-2-yl)cyclohexanecarboxamide] belongs less than 500 nM; to `CC(C)(C)CC(=O)Nc1nc2ccc(F)cn2c1-c1ccccn1` [Compound 347, N-(6-fluoro-3-(pyridin-2-yl)imidazo[1,2-a]pyridin-2-yl)-3,3-dimethylbutanamide], 3000 to 10000 nM. As to `CC(C)(C)CC(=O)Nc1nc2ccc(F)cn2c1-c1ccc(C#N)cn1` [Compound 354, N-(3-(5-cyanopyridin-2-yl)-6-fluoroimidazo[1,2-a]pyridin-2-yl)-3,3-dimethylbutanamide], the EC50 is 3000 to 10000 nM.

In the case of `CC(CC(=O)Nc1nc2ccc(F)cn2c1-c1nccs1)C(F)(F)F` (stereo not shown) [Compound 383, 4,4,4-trifluoro-N-(6-fluoro-3-(thiazol-2-yl)imidazo[1,2-a]pyridin-2-yl)-3-methylbutanamide], the EC50 was in the range of 3000 to 10000 nM.

Still in this assay, the particulars now being: SH-SY5Y native cell line, FLIPR assay (Table 6); read-out: SH-SY5Y EC50.
For `CC1(CC(=O)Nc2nc3ccc(C(F)(F)F)nn3c2C2CC2)CCCC1` [Compound 445, N-(3-cyclopropyl-6-(trifluoromethyl)imidazo[1,2-b]pyridazin-2-yl)-2-(1-methylcyclopentyl)acetamide], the EC50 is less than 500 nM.

Still in this assay, the particulars now being: read-out: SH-SY5Y_EC50.
On to `Cc1c(NC(=O)CC(F)(F)F)nc2ccc(F)cn12` [Compound 424, 3,3,3-trifluoro-N-(6-fluoro-3-methylimidazo[1,2-a]pyridin-2-yl)propanamide], for which the EC50 is 10000 nM.

Source of the values: patent publication US9018208B2, “Heterocycles as potassium channel modulators” (Icagen Inc., priority 2007, dated 2015).
